Columns and labels:
Format in all cases: in vivo, ICR mice
[1] = system: intestinal fluid secretion evoked by MgSO4 in mice; test: Antienteropooling assay (MgSO4-evoked intestinal fluid accumulation); conditions: 5 days, compared to control group, FIG. 7
Method: ICR mice weighing 18-22 g were purchased from the Laboratory Animal Services Center, The Chinese University of Hong Kong. The animals were fed with a rodent standard diet with free access to water, and were kept in rooms maintained at 22±1° C. with a 12 h light/dark cycle following international recommendations. All experimental protocols were approved by The Animal Ethics Committees of Hong Kong Baptist University, in accordance with “Institutional Guidelines and Animal Ordinance” (Department of Health, Hong Kong Special Administrative Region). The experiment was conducted as previously described with a litter revision. Animals will be randomly divided into six groups. Vehicle control group received 0.5% CMC suspension (10 ml/kg, p.o.), the positive control group was administered loperamide at the dose of 2 mg/kg orally; the test groups were orally administered major principles ellagic acid at the doses of 15 and 30 mg/kg, and corilagin at the doses of 30 and 60 mg/kg, respectively. The whole treatment lasted for 5 consecutive days. Before the last treatment, the mice of all groups were fasted overnight. After one hour of the last treatment on day 5, all groups were given the diarrhea reagent (0.5 ml/mouse of a 20% aq. MgSO4, orally). They were killed 30 min later and the small intestines were collected and weighed to find out the accumulation of intestinal fluid secretion evoked by MgSO4.

[2] = system: magnesium sulphate-induced diarrhea in mice; test: Magnesium sulphate-induced diarrhea in mice; conditions: magnesium sulfate model, FIG. 6; for inhibitory effect on diarrhea (stools rate, stools grade, diarrhea index): oral, corilagin 30 and 60 mg/kg, ellagic acid 15 and 30 mg/kg
Method: ICR mice weighing 18-22 g were purchased from the Laboratory Animal Services Center, The Chinese University of Hong Kong. The animals were fed with a rodent standard diet with free access to water, and were kept in rooms maintained at 22±1° C. with a 12 h light/dark cycle following international recommendations. All experimental protocols were approved by The Animal Ethics Committees of Hong Kong Baptist University, in accordance with “Institutional Guidelines and Animal Ordinance” (Department of Health, Hong Kong Special Administrative Region). A protocol for castor oil-induced diarrhea was followed. In brief, diarrhea was induced by orally administration of magnesium sulphate at the dose of 3 g/kg to the animals 30 min after pretreatment with extracts, fractions or major components of P. chinense, and loperamide. All the administrations are carried out through oral route. Stool rate (SR), stool grade (SG) and diarrheal index (DI) were all evaluated.

[3] = system: castor oil-induced diarrhea in mice; test: Castor oil-induced diarrhea in mice; conditions: castor oil model, FIG. 6; for inhibitory effect on diarrhea (stools rate, stools grade, diarrhea index): oral, corilagin 30 and 60 mg/kg, ellagic acid 15 and 30 mg/kg
Method: ICR mice weighing 18-22 g were purchased from the Laboratory Animal Services Center, The Chinese University of Hong Kong. The animals were fed with a rodent standard diet with free access to water, and were kept in rooms maintained at 22±1° C. with a 12 h light/dark cycle following international recommendations. All experimental protocols were approved by The Animal Ethics Committees of Hong Kong Baptist University, in accordance with “Institutional Guidelines and Animal Ordinance” (Department of Health, Hong Kong Special Administrative Region). The castor oil-induced diarrhea model, as previously described by Zhou, et al in Zhou [NT]; Hu Zhihua; Wang […]; et al (Institute of Chinese Materia Medica, China Pharmaceutical University, Nanjing); An Inquiry into Preparing Diarrhea Model of Mice and Application of Diarrhea Index[J]; Chinese Traditional and Herbal Drugs; 1994-04, was used in the present study. In brief, extracts, fractions or major components of P. chinense, and loperamide were administered orally for 5 consecutive days. On day 5, each animal was kept individually in a cage, the floor of which was lined with blotting paper, and the paper was changed every hour. 30 min after the last treatment, diarrhea was induced by oral administration of castor oil ([…]). Number of total fecal pellets and wet faeces were counted in 4 h after the administration of castor oil. The diameter of wet faeces was measured and scored in order to evaluate stool consistency as follows: 1-the diameter of wet […] than 1.0 cm; 2-the diameter of wet […] between 1.0 and 2.0 cm; 3-the diameter of wet […] between 2.0 and 3.0 cm; 4- the diameter of wet […] more than 3.0 cm. The stool rate (SR) was calculated through comparing of the number of wet faeces and total faeces, and stool grade (SG) was evaluated according to the formula: [formula] where Nwet is the number of wet faeces; N<1, N1-2, N2-3 and N>3 are the number of wet faeces whose diameter are less than 1.0 cm, between 1.0 and 2.0 cm, between 2.0 and 3.0 cm, and more than 3.0 cm, respectively. Finally, the stool severity was evaluated by the in vivo diarrheal index (DI) and expressed as follows according to the method of Zhou, et al. DI=SR×SG

[4] = system: intestinal transit of charcoal meal in mice; test: Gastrointestinal transit test (charcoal meal); conditions: 5 days, FIG. 7
Method: ICR mice weighing 18-22 g were purchased from the Laboratory Animal Services Center, The Chinese University of Hong Kong. The animals were fed with a rodent standard diet with free access to water, and were kept in rooms maintained at 22±1° C. with a 12 h light/dark cycle following international recommendations. All experimental protocols were approved by The Animal Ethics Committees of Hong Kong Baptist University, in accordance with “Institutional Guidelines and Animal Ordinance” (Department of Health, Hong Kong Special Administrative Region). The experiment was conducted based on methods known in the art with a litter revision. Animals will be randomly divided into six groups. Vehicle control group received 0.5% CMC suspension (10 ml/kg, p.o.), the positive control group was administered loperamide at the dose of 2 mg/kg orally; the test groups were orally administered major principles ellagic acid at the doses of 15 and 30 mg/kg, and corilagin at the doses of 30 and 60 mg/kg, respectively. The whole treatment lasted for 5 consecutive days. Before the last treatment, the mice of all groups were fasted overnight. Five minutes later of the last treatment on day 5, 0.5 ml of a 3% suspension of deactivated charcoal in 0.5% aqueous Sodium Carboxymethyl Cellulose was administered orally to each mouse. All the mice were killed by cervical […] 30 min later and the distance travelled by the charcoal plug from pylorus to caecum was determined and expressed as a percentage of the total length of the small intestine.

[5] = 60 mg/kg oral vs loperamide 2 mg/kg
[6] = 30 mg/kg oral vs loperamide 2 mg/kg

Row | SMILES | intestinal fluid volume (pylorus to caecum) ([1]; 30 mg/kg oral) | intestinal fluid volume (pylorus to caecum) ([1]; 60 mg/kg oral) | anti-diarrheal activity compared to loperamide [2, 5] | inhibitory effect on diarrhea (stools rate, stools grade, diarrhea index) [2] | anti-diarrheal activity compared to loperamide [3, 5] | inhibitory effect on diarrhea (stools rate, stools grade, diarrhea index) [3] | intestinal transit of charcoal meal ([4]; 15 mg/kg oral) | intestinal transit of charcoal meal ([4]; 30 mg/kg oral) | intestinal fluid volume (pylorus to caecum) ([1]; 15 mg/kg oral) | anti-diarrheal activity compared to loperamide [2, 6] | anti-diarrheal activity compared to loperamide [3, 6]
1 | O=C(O[C@@H]1O[C@@H]2COC(=O)c3cc(O)c(O)c(O)c3-c3c(cc(O)c(O)c3O)C(=O)O[C@H]([C@H]1O)[C@@H]2O)c1cc(O)c(O)c(O)c1 [corilagin] | significantly reduced | significantly reduced | comparable anti-diarrheal activities as loperamide | significantly inhibitory effects | comparable anti-diarrheal activities as loperamide | significantly inhibitory effects | significantly delay | significantly delay |  |  | 
2 | O=c1oc2c(O)c(O)cc3c(=O)oc4c(O)c(O)cc1c4c23 [ellagic acid] | significantly reduced |  |  | significantly inhibitory effects |  | significantly inhibitory effects |  | significantly delay | significantly reduced | comparable anti-diarrheal activities as loperamide | comparable anti-diarrheal activities as loperamide
